# Data taken from ChEMBL document CHEMBL5154675, “Design, Synthesis, and Biological Evaluation of 1-(Indolizin-3-yl)ethan-1-ones as CBP Bromodomain Inhibitors for the Treatment of Prostate Cancer” (J Med Chem, 2022).
# The source made the active and inactive calls. No cut-off for these calls is given here.
# Key:
# CREB-binding protein [1] = biological target: T1, CREB-binding protein (Homo sapiens, UniProt Q92793); test: Binding affinity to His6-tagged human CBP bromodomain (1081 to 1197 residues) expressed in Escherichia coli BL21 (DE3) assessed as dissociation constant by ITC analysis
# Target sequence in this assay (Q92793 whole entry, the tested form may be a part): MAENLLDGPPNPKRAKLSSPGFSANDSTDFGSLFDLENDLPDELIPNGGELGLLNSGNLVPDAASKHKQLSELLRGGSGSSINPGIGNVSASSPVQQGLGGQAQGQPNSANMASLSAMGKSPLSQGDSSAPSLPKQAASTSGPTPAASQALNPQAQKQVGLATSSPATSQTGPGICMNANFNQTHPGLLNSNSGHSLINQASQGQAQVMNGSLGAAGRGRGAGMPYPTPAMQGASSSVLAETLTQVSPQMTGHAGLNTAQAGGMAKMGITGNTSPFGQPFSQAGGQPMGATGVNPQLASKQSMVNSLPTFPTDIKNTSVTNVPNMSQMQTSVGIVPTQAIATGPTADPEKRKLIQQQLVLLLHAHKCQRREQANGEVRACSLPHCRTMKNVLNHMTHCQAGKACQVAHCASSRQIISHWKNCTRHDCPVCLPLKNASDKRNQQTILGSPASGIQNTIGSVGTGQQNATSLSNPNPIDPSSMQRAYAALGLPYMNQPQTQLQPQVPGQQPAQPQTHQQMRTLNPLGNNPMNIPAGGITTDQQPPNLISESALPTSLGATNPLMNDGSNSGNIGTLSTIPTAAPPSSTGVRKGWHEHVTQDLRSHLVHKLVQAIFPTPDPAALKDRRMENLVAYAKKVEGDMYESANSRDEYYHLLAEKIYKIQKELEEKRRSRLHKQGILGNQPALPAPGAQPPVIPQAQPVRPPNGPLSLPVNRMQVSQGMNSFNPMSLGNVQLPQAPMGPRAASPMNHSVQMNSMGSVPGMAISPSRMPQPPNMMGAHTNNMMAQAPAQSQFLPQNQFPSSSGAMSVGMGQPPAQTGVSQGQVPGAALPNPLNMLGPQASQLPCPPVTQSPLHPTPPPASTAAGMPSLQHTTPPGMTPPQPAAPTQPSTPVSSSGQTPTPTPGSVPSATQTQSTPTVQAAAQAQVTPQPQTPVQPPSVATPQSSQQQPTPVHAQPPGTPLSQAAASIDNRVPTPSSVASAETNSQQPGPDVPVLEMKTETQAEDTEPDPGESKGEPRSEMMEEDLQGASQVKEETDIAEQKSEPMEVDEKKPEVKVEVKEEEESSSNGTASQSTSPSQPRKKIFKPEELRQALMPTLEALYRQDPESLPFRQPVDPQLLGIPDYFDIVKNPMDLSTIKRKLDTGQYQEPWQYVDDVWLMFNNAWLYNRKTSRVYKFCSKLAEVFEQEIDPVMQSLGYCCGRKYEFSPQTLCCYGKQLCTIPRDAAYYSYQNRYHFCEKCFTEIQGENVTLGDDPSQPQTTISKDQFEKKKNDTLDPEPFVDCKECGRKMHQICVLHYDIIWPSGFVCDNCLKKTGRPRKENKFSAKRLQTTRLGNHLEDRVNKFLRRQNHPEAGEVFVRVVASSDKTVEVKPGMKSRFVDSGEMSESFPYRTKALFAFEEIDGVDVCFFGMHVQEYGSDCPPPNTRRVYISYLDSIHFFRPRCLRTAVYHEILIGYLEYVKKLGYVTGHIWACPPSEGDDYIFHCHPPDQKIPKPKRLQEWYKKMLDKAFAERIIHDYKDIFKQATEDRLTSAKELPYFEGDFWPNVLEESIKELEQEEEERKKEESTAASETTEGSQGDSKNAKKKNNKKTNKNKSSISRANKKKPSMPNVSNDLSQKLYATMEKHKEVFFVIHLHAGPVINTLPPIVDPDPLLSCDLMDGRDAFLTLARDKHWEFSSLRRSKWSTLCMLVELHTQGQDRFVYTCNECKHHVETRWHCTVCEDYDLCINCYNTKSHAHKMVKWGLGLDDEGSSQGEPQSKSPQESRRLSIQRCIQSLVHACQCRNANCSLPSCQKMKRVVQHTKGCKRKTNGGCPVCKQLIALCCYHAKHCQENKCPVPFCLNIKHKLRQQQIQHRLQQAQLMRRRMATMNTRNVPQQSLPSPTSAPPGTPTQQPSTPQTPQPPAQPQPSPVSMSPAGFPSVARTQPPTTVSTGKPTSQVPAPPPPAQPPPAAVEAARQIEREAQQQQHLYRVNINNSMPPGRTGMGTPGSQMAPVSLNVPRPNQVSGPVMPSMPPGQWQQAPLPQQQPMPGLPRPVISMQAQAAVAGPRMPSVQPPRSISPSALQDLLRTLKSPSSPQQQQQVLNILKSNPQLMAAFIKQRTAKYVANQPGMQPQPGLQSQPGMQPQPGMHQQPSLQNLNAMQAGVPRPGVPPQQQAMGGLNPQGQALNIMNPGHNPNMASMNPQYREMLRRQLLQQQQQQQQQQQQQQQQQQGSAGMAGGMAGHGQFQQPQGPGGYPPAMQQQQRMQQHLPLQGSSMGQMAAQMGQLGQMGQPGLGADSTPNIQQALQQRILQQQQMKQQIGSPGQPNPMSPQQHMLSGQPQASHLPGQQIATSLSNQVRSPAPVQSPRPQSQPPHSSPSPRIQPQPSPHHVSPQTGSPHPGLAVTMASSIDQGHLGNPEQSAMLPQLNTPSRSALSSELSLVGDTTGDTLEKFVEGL
# [2] = Cmax in Sprague-Dawley rat at 25 mg/kg, po measured up to 24 hrs; format: ADME, organism-based; set-up: dose 25 mg/kg, time < 24 hrs, route po; details: in vivo
# [3] = Cmax in Sprague-Dawley rat at 5 mg/kg, iv administered as single dose measured up to 24 hrs; format: ADME, organism-based; set-up: time < 24 hrs, dose 5 mg/kg, route iv; details: in vivo
# [4] = Clearance in Sprague-Dawley rat at 5 mg/kg, iv administered as single dose measured up to 24 hrs; format: ADME, organism-based; details: in vivo, iv, 5 mg/kg, 24 h
# [5] = Half life in Sprague-Dawley rat at 5 mg/kg, iv administered as single dose measured up to 24 hrs; format: ADME, organism-based; details: Sprague-Dawley, in vivo
# [6] = Metabolic stability in rat liver microsomes assessed as parent compound remaining at 1 uM incubated for 45 mins in presence of NADPH by LC-MS/MS analysis; format: ADME, Microsome; details: read-out: Stability
# [7] = Half life in rat liver microsomes at 1 uM incubated for 45 mins in presence of NADPH by LC-MS/MS analysis; format: ADME, Microsome
# [8] = Half life in human liver microsomes at 1 uM incubated for 45 mins in presence of NADPH by LC-MS/MS analysis; format: ADME, Microsome
# [9] = Intrinsic clearance in rat liver microsomes at 1 uM incubated for 45 mins in presence of NADPH by LC-MS/MS analysis; format: ADME, Microsome; details: read-out: CLH
# [10] = Intrinsic clearance in human liver microsomes at 1 uM incubated for 45 mins in presence of NADPH by LC-MS/MS analysis; format: ADME, Microsome; details: read-out: CLH
# [11] = Hepatic clearance in human liver microsomes at 1 uM incubated for 45 mins in presence of NADPH by LC-MS/MS analysis; format: ADME, Microsome; details: read-out: CLH
# [12] = Hepatic clearance in rat liver microsomes at 1 uM incubated for 45 mins in presence of NADPH by LC-MS/MS analysis; format: ADME, Microsome
# [13] = Hepatic extraction ratio in human liver microsomes at 1 uM incubated for 45 mins in presence of NADPH by LC-MS/MS analysis; format: ADME, Microsome; details: read-out: ERH
# [14] = Apparent permeability across apical to basolateral side in human Caco-2 cells at 10 uM measured after 2 hrs by LC-MS/MS analysis; format: ADME, cell-based
# [15] = Efflux ratio of apparent permeability across basolateral to apical side over apical to basolateral side in human Caco-2 cells at 10 uM measured after 2 hrs by LC-MS/MS analysis; format: ADME, cell-based
# [16] = Apparent permeability across apical to basolateral side in human Caco-2 cells assessed as drug recovery at 10 uM measured after 2 hrs by LC-MS/MS analysis; format: ADME, cell-based; details: read-out: Drug recovery
# [17] = Apparent permeability across basolateral to apical side in human Caco-2 cells assessed as drug recovery at 10 uM measured after 2 hrs by LC-MS/MS analysis; format: ADME, cell-based; details: read-out: Drug recovery
# CWR22R [18] = test: Antiproliferative activity against human 22Rv1 cells assessed as cell growth inhibition by Celltiter-Glo assay; format: functional, cell-based
# LNCaP C4-2B [19] = test: Inhibition of colony formation in human LNCaP C4-2B cells at 1 to 4 uM incubated for 14 days by crystal violet staining based assay; format: functional, cell-based; details: dose 1-4 µM, time 14.0 day
# CWR22R [20] = test: Inhibition of colony formation in human 22Rv1 cells at 1 to 4 uM incubated for 14 days by crystal violet staining based assay; format: functional, cell-based; details: dose 1-4 µM, time 14.0 day
# CWR22R [21] = test: Antimigratory activity against human 22Rv1 cells assessed as reduction in cell migration at 5 uM incubated for 48 hrs by bright-field microscopy based wound healing assay relative to control; format: functional; set-up: scale not given: the % may be the effect or the level left
# CWR22R [22] = test: Antitumor activity against human 22Rv1 cells xenografted in NOD SCID mouse assessed as tumor growth inhibition at 40 mg/kg, ip administered once daily for 21 days and measured every other day relative to control; format: functional; details: 22Rv1, 504 h, time 21 day, read-out: TGI
# [23] = Aqueous solubility of compound in PBS buffer at pH 7.2 measured after 24 hrs by HPLC analysis; format: physicochemical
# LNCaP C4-2B [24] = test: Induction of apoptosis in human LNCaP C4-2B cells assessed as increase in apoptotic cells at 10 uM measured after 48 hrs by Annexin V-FITC and propidium iodide staining based flow cytometry (Rvb= 1%); format: functional
# LNCaP C4-2B [25] = test: Induction of apoptosis in human LNCaP C4-2B cells assessed as increase in apoptotic cells at 20 uM measured after 48 hrs by Annexin V-FITC and propidium iodide staining based flow cytometry (Rvb= 1%); format: functional
# LNCaP C4-2B [26] = test: Suppression of PSA gene expression in human LNCaP C4-2B cells transfected with renilla luciferase incubated for 24 hrs by dual luciferase reporter assay; format: functional, cell-based; details: dose 0.4-10 µM, DDE = dose-dependent effect
# CWR22R [27] = test: Suppression of PSA gene expression in human 22Rv1 cells incubated for 48 hrs by dual luciferase reporter assay; format: functional, cell-based; details: dose 0-20 µM, DDE = dose-dependent effect
# CWR22R [28] = test: Suppression of full length Androgen receptor gene expression in human 22Rv1 cells incubated for 48 hrs by SYBR green dye-based qRT-PCR analysis; format: functional, cell-based; details: dose 0-20 µM, DDE = dose-dependent effect
# CWR22R [29] = test: Suppression of Androgen receptor variants gene expression in human 22Rv1 cells incubated for 48 hrs by SYBR green dye-based qRT-PCR analysis; format: functional, cell-based; details: dose 0-20 µM, DDE = dose-dependent effect
# CWR22R [30] = test: Suppression of c-Myc protein expression in human 22Rv1 cells at 5 uM incubated for 48 hrs by Western blot analysis; format: functional, cell-based
# LNCaP C4-2B [31] = test: Suppression of c-Myc protein expression in human LNCaP C4-2B cells at 5 uM incubated for 48 hrs by Western blot analysis; format: functional, cell-based
# LNCaP = test: Suppression of c-Myc protein expression in human LNCaP cells at 5 uM incubated for 48 hrs by Western blot analysis; format: functional, cell-based
# [32] = Toxicity in NOD SCID mouse xenografted with human 22Rv1 cells assessed as mortality at 40 mg/kg, ip administered once daily for 21 days; format: organism-based, CWR22R; details: in vivo, 504 h, time 21 day
# [33] = Toxicity in NOD SCID mouse xenografted with human 22Rv1 cells assessed as body weight loss at 40 mg/kg, ip administered once daily for 21 days and measured every other day; format: organism-based, CWR22R; details: in vivo, 504 h, time 21 day
# CREB-binding protein [34] = biological target: T1, CREB-binding protein; details: dose 200.0 µM, time 30.0 min
# [35] = biological target: Bromodomain-containing protein 4 (Homo sapiens, UniProt O60885); details: dose 200.0 µM, time 30.0 min
# [36] = biological target: T2, Bromodomain-containing protein 3 (Homo sapiens, UniProt Q15059); details: dose 200.0 µM, time 30.0 min
# [37] = biological target: T2, Bromodomain-containing protein 3; details: dose 200.0 µM, time 30.0 min; remark: listed apart in the source
# [38] = biological target: T3, Bromodomain-containing protein 2 (Homo sapiens, UniProt P25440); details: dose 200.0 µM, time 30.0 min
# [39] = biological target: T3, Bromodomain-containing protein 2; details: dose 200.0 µM, time 30.0 min; remark: listed apart in the source
# [40] = biological target: Bromodomain testis-specific protein (Homo sapiens, UniProt Q58F21); details: dose 200.0 µM, time 30.0 min
# T2 sequence (Q15059 2-726 limits assumed): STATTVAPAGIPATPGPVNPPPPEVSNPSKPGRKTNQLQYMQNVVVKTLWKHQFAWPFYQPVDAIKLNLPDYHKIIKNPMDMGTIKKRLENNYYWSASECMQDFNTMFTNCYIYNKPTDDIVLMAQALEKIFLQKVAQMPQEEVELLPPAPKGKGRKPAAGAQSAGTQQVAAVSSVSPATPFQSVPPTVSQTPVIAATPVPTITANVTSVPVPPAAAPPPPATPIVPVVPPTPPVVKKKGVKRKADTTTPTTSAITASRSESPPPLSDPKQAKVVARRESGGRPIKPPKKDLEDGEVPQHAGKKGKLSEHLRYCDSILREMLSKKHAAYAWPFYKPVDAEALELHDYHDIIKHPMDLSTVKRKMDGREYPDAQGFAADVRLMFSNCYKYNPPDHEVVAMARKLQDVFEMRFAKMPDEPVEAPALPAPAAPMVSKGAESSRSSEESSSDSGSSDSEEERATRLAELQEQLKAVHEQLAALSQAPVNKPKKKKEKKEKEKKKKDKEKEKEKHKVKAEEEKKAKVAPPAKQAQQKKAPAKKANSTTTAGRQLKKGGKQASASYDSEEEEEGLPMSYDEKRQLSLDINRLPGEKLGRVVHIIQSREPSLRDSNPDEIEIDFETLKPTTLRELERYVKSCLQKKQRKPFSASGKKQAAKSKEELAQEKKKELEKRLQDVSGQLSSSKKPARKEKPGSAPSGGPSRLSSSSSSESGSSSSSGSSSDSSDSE
# T3 sequence (P25440 whole entry, looked up): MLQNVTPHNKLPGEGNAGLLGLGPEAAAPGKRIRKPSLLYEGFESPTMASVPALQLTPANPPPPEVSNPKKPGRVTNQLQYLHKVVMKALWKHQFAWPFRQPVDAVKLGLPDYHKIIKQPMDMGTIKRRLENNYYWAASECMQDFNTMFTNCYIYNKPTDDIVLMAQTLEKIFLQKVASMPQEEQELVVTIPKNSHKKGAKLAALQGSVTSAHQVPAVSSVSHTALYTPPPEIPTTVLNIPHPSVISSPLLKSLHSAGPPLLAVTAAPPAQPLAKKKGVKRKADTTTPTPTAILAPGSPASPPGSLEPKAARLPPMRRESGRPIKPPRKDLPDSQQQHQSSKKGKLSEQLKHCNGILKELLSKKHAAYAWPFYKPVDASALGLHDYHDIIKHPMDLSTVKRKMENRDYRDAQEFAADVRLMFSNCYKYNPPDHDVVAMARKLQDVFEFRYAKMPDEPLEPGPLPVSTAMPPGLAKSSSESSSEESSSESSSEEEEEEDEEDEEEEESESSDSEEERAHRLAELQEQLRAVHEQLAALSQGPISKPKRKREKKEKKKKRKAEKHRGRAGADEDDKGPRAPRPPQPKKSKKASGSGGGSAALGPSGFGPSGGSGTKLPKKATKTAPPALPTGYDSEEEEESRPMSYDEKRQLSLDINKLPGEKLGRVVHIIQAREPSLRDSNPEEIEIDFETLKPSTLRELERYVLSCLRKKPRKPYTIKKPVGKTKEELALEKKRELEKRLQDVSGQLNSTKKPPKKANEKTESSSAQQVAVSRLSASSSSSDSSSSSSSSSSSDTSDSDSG
smiles,measurement,setting,value
COc1ccn2c(C(C)=O)cc(C(=O)Nc3cc(C(C)O)cc(-c4cnn(C5CC5)c4)c3F)c2c1 (stereo unspecified),Kd,CREB-binding protein [1],58 nM
same,Cmax,[2],1570 ng/mL
same,Cmax,[3],8110 ng/mL
same,CL,[4],0.14 L/h/kg
same,half-life,[5],36.6 min
same,"remaining at 0.75 h, 1 µM",[6],50.7%
same,half-life at 1 µM,[7],45.9 min
same,half-life at 1 µM,[8],21.3 min
same,CLint scaled at 1 µM,[9],54.1 mL/min/kg
same,CLint scaled at 1 µM,[10],81.9 mL/min/kg
same,CLint scaled at 1 µM,[11],16.5 mL/min/kg
same,CLhep predicted at 1 µM,[12],27.3 mL/min/kg
same,"hepatic extraction ratio at 0.75 h, 1 µM",[13],0.798
same,"Papp A→B at 2 h, 10 µM",[14],6.68 ×10⁻⁶ cm/s
same,"efflux ratio at 2 h, 10 µM",[15],1.77
same,"recovery at 2 h, 10 µM",[16],41.2%
same,"recovery at 2 h, 10 µM",[17],37.3%
same,IC50,CWR22R [18],2040 nM
same,inhibition,LNCaP C4-2B [19],Active
same,inhibition,CWR22R [20],Active
same,Activity,CWR22R [21],60%
same,inhibition in vivo at 40 mg/kg,CWR22R [22],88%
same,solubility at 24 h,[23],20 µg/mL
same,Activity,LNCaP C4-2B [24],10.39%
same,Activity,LNCaP C4-2B [25],13.08%
same,Activity,LNCaP C4-2B [26],Dde
same,Activity,CWR22R [27],Dde
same,Activity,CWR22R [28],Dde
same,Activity,CWR22R [29],Dde
same,Activity,CWR22R [30],Active
same,Activity,LNCaP C4-2B [31],Active
same,Activity,LNCaP,Active
same,Activity,[32],Non-Toxic
same,Activity,[33],Non-Toxic
same,ΔTm,CREB-binding protein [34],11.5 °C
same,ΔTm,[35],-0.5 °C
same,ΔTm,[36],-1.3 °C
same,ΔTm,[37],-2.5 °C
same,ΔTm,[38],-0.8 °C
same,ΔTm,[39],1 °C
same,ΔTm,[40],-3 °C
